{"source": "the OligoGym collection", "note": "Oligonucleotides are written 5' to 3', each unit as a sugar letter and its base; * is a phosphorothioate linkage, no mark a phosphodiester; rarer units and linkages stand in square brackets, end groups in braces. Plain capitals give the bases only. d = 2'-deoxy (DNA); r = 2'-OH (RNA); further: test concentration or dose not given here", "data": [{"target": "P2rx2 (rat)", "test": "reporter assay of Huesken 2005", "conditions": "siRNA", "units": {"normalised inhibition (eCFP-eYFP dual reporter)": "%"}, "values": [{"substance": "sense rCrArGrUrGrUrArGrUrCrArGrCrArUrCrArUrCdTdT / antisense rGrArUrGrArUrGrCrUrGrArCrUrArCrArCrUrGdCdC", "normalised inhibition (eCFP-eYFP dual reporter)": 78.4}, {"substance": "sense rCrArUrCrArUrCrArCrCrArArArGrUrCrArArGdTdT / antisense rCrUrUrGrArCrUrUrUrGrGrUrGrArUrGrArUrGdGdA", "normalised inhibition (eCFP-eYFP dual reporter)": 71.5}, {"substance": "sense rCrArUrCrUrCrUrGrCrUrCrUrGrArCrUrGrArGdTdT / antisense rCrUrCrArGrUrCrArGrArGrCrArGrArGrArUrGdGdA", "normalised inhibition (eCFP-eYFP dual reporter)": 42.7}, {"substance": "sense rCrArUrUrGrUrUrGrArGrArArGrGrCrArGrGrAdTdT / antisense rUrCrCrUrGrCrCrUrUrCrUrCrArArCrArArUrGdAdA", "normalised inhibition (eCFP-eYFP dual reporter)": 61.4}, {"substance": "sense rCrCrArArGrArCrCrUrGrCrGrArGrGrUrGrUrCdTdT / antisense rGrArCrArCrCrUrCrGrCrArGrGrUrCrUrUrGrGdAdG", "normalised inhibition (eCFP-eYFP dual reporter)": 68.7}, {"substance": "sense rCrCrGrGrArGrArGrCrUrCrCrArUrCrArUrCrAdTdT / antisense rUrGrArUrGrArUrGrGrArGrCrUrCrUrCrCrGrGdTdC", "normalised inhibition (eCFP-eYFP dual reporter)": 54.2}, {"substance": "sense rCrGrGrArArGrArCrArArArGrUrGrUrGrGrGrAdTdT / antisense rUrCrCrCrArCrArCrUrUrUrGrUrCrUrUrCrCrGdAdC", "normalised inhibition (eCFP-eYFP dual reporter)": 64.6}, {"substance": "sense rCrGrUrGrCrArGrArArArArGrCrUrArCrCrArGdTdT / antisense rCrUrGrGrUrArGrCrUrUrUrUrCrUrGrCrArCrGdAdT", "normalised inhibition (eCFP-eYFP dual reporter)": 80.5}, {"substance": "sense rCrUrArCrArArCrUrUrCrArGrGrUrUrUrGrCrCdTdT / antisense rGrGrCrArArArCrCrUrGrArArGrUrUrGrUrArGdCdC", "normalised inhibition (eCFP-eYFP dual reporter)": 57}, {"substance": "sense rCrUrArCrCrCrCrArArGrUrUrCrArArGrUrUrCdTdT / antisense rGrArArCrUrUrGrArArCrUrUrGrGrGrGrUrArGdTdG", "normalised inhibition (eCFP-eYFP dual reporter)": 62.8}, {"substance": "sense rCrUrCrCrArUrCrGrGrGrGrUrGrGrGrCrUrCrCdTdT / antisense rGrGrArGrCrCrCrArCrCrCrCrGrArUrGrGrArGdGdT", "normalised inhibition (eCFP-eYFP dual reporter)": 38.5}, {"substance": "sense rCrUrCrCrUrUrCrCrUrGrUrGrUrGrArCrUrGrGdTdT / antisense rCrCrArGrUrCrArCrArCrArGrGrArArGrGrArGdCdC", "normalised inhibition (eCFP-eYFP dual reporter)": 47.5}, {"substance": "sense rCrUrCrUrGrArCrUrGrArGrCrArGrGrUrGrGrUdTdT / antisense rArCrCrArCrCrUrGrCrUrCrArGrUrCrArGrArGdCdA", "normalised inhibition (eCFP-eYFP dual reporter)": 46.8}, {"substance": "sense rCrUrGrArCrArArCrCrArUrUrUrUrCrUrGrGrGdTdT / antisense rCrCrCrArGrArArArArUrGrGrUrUrGrUrCrArGdAdA", "normalised inhibition (eCFP-eYFP dual reporter)": 40.3}, {"substance": "sense rCrUrGrGrArArCrUrGrUrGrArCrCrUrGrGrArCdTdT / antisense rGrUrCrCrArGrGrUrCrArCrArGrUrUrCrCrArGdTdT", "normalised inhibition (eCFP-eYFP dual reporter)": 70.3}, {"substance": "sense rCrUrGrGrArCrArUrGrCrArArGrGrCrArArUrGdTdT / antisense rCrArUrUrGrCrCrUrUrGrCrArUrGrUrCrCrArGdCdT", "normalised inhibition (eCFP-eYFP dual reporter)": 55.2}, {"substance": "sense rCrUrUrGrGrCrCrArGrCrArUrArUrGrGrGrArCdTdT / antisense rGrUrCrCrCrArUrArUrGrCrUrGrGrCrCrArArGdTdG", "normalised inhibition (eCFP-eYFP dual reporter)": 52}, {"substance": "sense rGrArArArUrUrCrArGrUrCrUrCrArUrUrCrCrCdTdT / antisense rGrGrGrArArUrGrArGrArCrUrGrArArUrUrUrCdCdC", "normalised inhibition (eCFP-eYFP dual reporter)": 39.7}, {"substance": "sense rGrArCrArGrCrUrGrGrArCrArUrGrCrArArGrGdTdT / antisense rCrCrUrUrGrCrArUrGrUrCrCrArGrCrUrGrUrCdCdG", "normalised inhibition (eCFP-eYFP dual reporter)": 35.3}, {"substance": "sense rGrArCrCrCrUrGrCrCrUrCrCrUrCrArGrGrCrUdTdT / antisense rArGrCrCrUrGrArGrGrArGrGrCrArGrGrGrUrCdAdT", "normalised inhibition (eCFP-eYFP dual reporter)": 61.9}, {"substance": "sense rGrArGrGrArArUrArCrGrUrArArArGrCrCrCrCdTdT / antisense rGrGrGrGrCrUrUrUrArCrGrUrArUrUrCrCrUrCdCdA", "normalised inhibition (eCFP-eYFP dual reporter)": 34.9}, {"substance": "sense rGrArUrCrArGrGrArCrUrCrUrGrArCrCrCrArUdTdT / antisense rArUrGrGrGrUrCrArGrArGrUrCrCrUrGrArUrCdAdA", "normalised inhibition (eCFP-eYFP dual reporter)": 81.3}, {"substance": "sense rGrCrArUrCrArUrCrArCrCrArGrGrArUrCrGrAdTdT / antisense rUrCrGrArUrCrCrUrGrGrUrGrArUrGrArUrGrCdTdG", "normalised inhibition (eCFP-eYFP dual reporter)": 78.5}, {"substance": "sense rGrCrCrArCrCrCrArGrCrCrCrUrCrCrArUrCrAdTdT / antisense rUrGrArUrGrGrArGrGrGrCrUrGrGrGrUrGrGrCdTdG", "normalised inhibition (eCFP-eYFP dual reporter)": 60.8}, {"substance": "sense rGrCrCrArUrArArGrArArGrUrUrCrGrArCrArAdTdT / antisense rUrUrGrUrCrGrArArCrUrUrCrUrUrArUrGrGrCdTdG", "normalised inhibition (eCFP-eYFP dual reporter)": 88.6}, {"substance": "sense rGrCrCrCrGrGrUrGrGrArGrGrArUrGrGrArArCdTdT / antisense rGrUrUrCrCrArUrCrCrUrCrCrArCrCrGrGrGrCdAdC", "normalised inhibition (eCFP-eYFP dual reporter)": 48.4}, {"substance": "sense rGrCrUrArCrCrArGrGrArCrArGrCrGrArGrArCdTdT / antisense rGrUrCrUrCrGrCrUrGrUrCrCrUrGrGrUrArGrCdTdT", "normalised inhibition (eCFP-eYFP dual reporter)": 60.5}, {"substance": "sense rGrCrUrCrUrArCrCrUrGrCrCrArUrUrCrArGrAdTdT / antisense rUrCrUrGrArArUrGrGrCrArGrGrUrArGrArGrCdTdG", "normalised inhibition (eCFP-eYFP dual reporter)": 79.4}, {"substance": "sense rGrGrArArGrArCrArArArGrUrGrUrGrGrGrArCdTdT / antisense rGrUrCrCrCrArCrArCrUrUrUrGrUrCrUrUrCrCdGdA", "normalised inhibition (eCFP-eYFP dual reporter)": 69.5}, {"substance": "sense rGrGrArGrArGrArArCrUrUrCrArCrArGrArArCdTdT / antisense rGrUrUrCrUrGrUrGrArArGrUrUrCrUrCrUrCrCdTdG", "normalised inhibition (eCFP-eYFP dual reporter)": 61.7}, {"substance": "sense rGrGrCrArGrGrGrArArArUrUrCrArGrUrCrUrCdTdT / antisense rGrArGrArCrUrGrArArUrUrUrCrCrCrUrGrCrCdTdG", "normalised inhibition (eCFP-eYFP dual reporter)": 51.5}, {"substance": "sense rGrGrGrArArArUrUrCrArGrUrCrUrCrArUrUrCdTdT / antisense rGrArArUrGrArGrArCrUrGrArArUrUrUrCrCrCdTdG", "normalised inhibition (eCFP-eYFP dual reporter)": 72.6}, {"substance": "sense rGrGrGrArUrUrCrGrCrArCrArGrGrGrCrArCrUdTdT / antisense rArGrUrGrCrCrCrUrGrUrGrCrGrArArUrCrCrCdAdT", "normalised inhibition (eCFP-eYFP dual reporter)": 66}, {"substance": "sense rGrGrUrGrCrGrGrArArUrCrGrGrCrGrCrCrUrGdTdT / antisense rCrArGrGrCrGrCrCrGrArUrUrCrCrGrCrArCrCdAdC", "normalised inhibition (eCFP-eYFP dual reporter)": 69.3}, {"substance": "sense rGrGrUrGrGrUrGrGrArCrArCrArCrUrUrGrGrCdTdT / antisense rGrCrCrArArGrUrGrUrGrUrCrCrArCrCrArCrCdTdG", "normalised inhibition (eCFP-eYFP dual reporter)": 52.2}, {"substance": "sense rGrUrGrUrCrArUrUrGrGrArGrUrCrArUrCrArUdTdT / antisense rArUrGrArUrGrArCrUrCrCrArArUrGrArCrArCdCdG", "normalised inhibition (eCFP-eYFP dual reporter)": 59}, {"substance": "sense rUrArCrCrUrCrArArGrCrArUrUrGrCrArCrArUdTdT / antisense rArUrGrUrGrCrArArUrGrCrUrUrGrArGrGrUrAdGdT", "normalised inhibition (eCFP-eYFP dual reporter)": 72.3}, {"substance": "sense rUrCrArArGrUrArGrArUrGrGrCrCrUrGrUrGrAdTdT / antisense rUrCrArCrArGrGrCrCrArUrCrUrArCrUrUrGrAdGdG", "normalised inhibition (eCFP-eYFP dual reporter)": 67.1}, {"substance": "sense rUrCrArGrCrCrArCrCrCrArGrCrCrCrUrCrCrAdTdT / antisense rUrGrGrArGrGrGrCrUrGrGrGrUrGrGrCrUrGrAdTdC", "normalised inhibition (eCFP-eYFP dual reporter)": 51.2}, {"substance": "sense rUrCrArUrCrArArGrArArCrArGrCrArUrCrCrAdTdT / antisense rUrGrGrArUrGrCrUrGrUrUrCrUrUrGrArUrGrAdGdG", "normalised inhibition (eCFP-eYFP dual reporter)": 53.7}, {"substance": "sense rUrCrArUrCrArArUrCrUrGrGrCrCrArCrUrGrCdTdT / antisense rGrCrArGrUrGrGrCrCrArGrArUrUrGrArUrGrAdTdG", "normalised inhibition (eCFP-eYFP dual reporter)": 43.1}, {"substance": "sense rUrCrCrCrArGrArCrCrUrUrGrGrGrArArCrArUdTdT / antisense rArUrGrUrUrCrCrCrArArGrGrUrCrUrGrGrGrAdAdG", "normalised inhibition (eCFP-eYFP dual reporter)": 50.4}, {"substance": "sense rUrCrGrArUrGrUrUrArUrCrGrUrGrCrArUrGrGdTdT / antisense rCrCrArUrGrCrArCrGrArUrArArCrArUrCrGrAdTdT", "normalised inhibition (eCFP-eYFP dual reporter)": 57.4}, {"substance": "sense rUrCrGrUrGrCrArGrArArArArGrCrUrArCrCrAdTdT / antisense rUrGrGrUrArGrCrUrUrUrUrCrUrGrCrArCrGrAdTdG", "normalised inhibition (eCFP-eYFP dual reporter)": 74.2}, {"substance": "sense rUrCrUrCrArUrCrCrUrGrCrUrUrUrArCrUrUrCdTdT / antisense rGrArArGrUrArArArGrCrArGrGrArUrGrArGrAdAdG", "normalised inhibition (eCFP-eYFP dual reporter)": 61.3}, {"substance": "sense rUrGrArCrCrCrUrUrGrCrCrCrUrUrGrUrCrUrUdTdT / antisense rArArGrArCrArArGrGrGrCrArArGrGrGrUrCrAdCdA", "normalised inhibition (eCFP-eYFP dual reporter)": 53.9}, {"substance": "sense rUrGrArGrArArGrGrCrArGrGrArGrArGrArArCdTdT / antisense rGrUrUrCrUrCrUrCrCrUrGrCrCrUrUrCrUrCrAdAdC", "normalised inhibition (eCFP-eYFP dual reporter)": 32.3}, {"substance": "sense rUrGrCrCrArArGrUrArUrUrArCrArArGrArUrAdTdT / antisense rUrArUrCrUrUrGrUrArArUrArCrUrUrGrGrCrAdAdA", "normalised inhibition (eCFP-eYFP dual reporter)": 76.8}, {"substance": "sense rUrGrCrCrCrUrUrGrUrCrUrUrGrGrGrCrCrArGdTdT / antisense rCrUrGrGrCrCrCrArArGrArCrArArGrGrGrCrAdAdG", "normalised inhibition (eCFP-eYFP dual reporter)": 37}, {"substance": "sense rUrGrGrCrCrArCrUrGrCrUrCrUrGrArCrCrUrCdTdT / antisense rGrArGrGrUrCrArGrArGrCrArGrUrGrGrCrCrAdGdA", "normalised inhibition (eCFP-eYFP dual reporter)": 57}, {"substance": "sense rUrGrGrCrUrGrUrCrCrArGrUrCrUrCrCrUrCrGdTdT / antisense rCrGrArGrGrArGrArCrUrGrGrArCrArGrCrCrAdGdT", "normalised inhibition (eCFP-eYFP dual reporter)": 67.4}, {"substance": "sense rUrGrUrCrUrGrArArUrCrArGrArGrUrGrCrArAdTdT / antisense rUrUrGrCrArCrUrCrUrGrArUrUrCrArGrArCrAdAdG", "normalised inhibition (eCFP-eYFP dual reporter)": 80.9}]}]}
